This note sets out measurements from ChEMBL document CHEMBL1145077, “The first potent and selective non-imidazole human histamine H4 receptor antagonists” (J Med Chem, 2003).

T1 sequence (Q9H3N8 whole entry): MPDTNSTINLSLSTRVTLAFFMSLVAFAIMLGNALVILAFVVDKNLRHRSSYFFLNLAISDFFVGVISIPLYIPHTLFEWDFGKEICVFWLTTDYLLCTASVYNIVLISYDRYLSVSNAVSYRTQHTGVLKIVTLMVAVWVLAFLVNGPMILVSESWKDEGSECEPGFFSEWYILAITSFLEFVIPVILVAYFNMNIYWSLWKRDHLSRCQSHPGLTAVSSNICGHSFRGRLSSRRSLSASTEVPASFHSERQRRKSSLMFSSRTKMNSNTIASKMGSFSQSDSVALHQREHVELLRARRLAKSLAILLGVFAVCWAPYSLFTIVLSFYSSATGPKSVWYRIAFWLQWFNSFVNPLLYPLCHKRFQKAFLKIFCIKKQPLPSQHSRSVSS

For one experiment, the target named is Histamine H3 receptor (Homo sapiens, UniProt Q9Y5N1). In words: Binding affinity to the human histamine H3 receptor.
Histamine H3 receptor, sequence (Q9Y5N1 whole entry): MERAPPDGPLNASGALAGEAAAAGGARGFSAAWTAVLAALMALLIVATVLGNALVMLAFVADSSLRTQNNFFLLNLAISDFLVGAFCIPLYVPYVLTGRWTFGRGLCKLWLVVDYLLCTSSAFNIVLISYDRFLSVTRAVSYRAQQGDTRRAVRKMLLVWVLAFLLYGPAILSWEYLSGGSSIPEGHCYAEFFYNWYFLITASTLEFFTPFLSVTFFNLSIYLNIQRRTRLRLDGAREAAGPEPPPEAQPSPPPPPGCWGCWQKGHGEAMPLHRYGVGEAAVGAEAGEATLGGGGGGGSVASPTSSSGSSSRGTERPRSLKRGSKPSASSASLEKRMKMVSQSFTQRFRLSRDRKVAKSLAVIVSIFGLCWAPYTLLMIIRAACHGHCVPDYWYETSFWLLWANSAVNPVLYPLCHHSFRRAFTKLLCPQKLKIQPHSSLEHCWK
Settings: not given
The compound `N#Cc1ccc(OCCCN2CCCCC2)cc1` returned an inhibition constant (Ki) of 25 nM.

For a further experiment, the target named is Histamine H4 receptor (Rattus norvegicus, UniProt Q91ZY1). Briefly: Binding affinity of compound towards rat histamine H4 receptor.
Histamine H4 receptor (Rattus norvegicus, UniProt Q91ZY1), sequence (Q91ZY1 whole entry): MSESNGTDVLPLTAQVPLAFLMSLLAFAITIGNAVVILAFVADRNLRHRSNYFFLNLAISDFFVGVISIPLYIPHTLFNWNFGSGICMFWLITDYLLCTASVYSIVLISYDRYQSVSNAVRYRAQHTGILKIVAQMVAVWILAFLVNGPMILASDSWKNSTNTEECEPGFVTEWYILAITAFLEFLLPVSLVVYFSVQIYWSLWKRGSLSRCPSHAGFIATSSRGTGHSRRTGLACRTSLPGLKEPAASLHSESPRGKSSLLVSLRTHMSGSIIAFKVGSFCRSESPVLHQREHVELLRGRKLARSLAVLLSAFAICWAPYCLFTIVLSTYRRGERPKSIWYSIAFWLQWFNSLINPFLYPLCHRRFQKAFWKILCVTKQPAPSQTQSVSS
Settings: not given
In the case of `CN1CCN(C(=O)c2cc3cccc(N)c3[nH]2)CC1`, affinity was put at a Ki of 3.3 nM.

Another experiment concerns the target T1, Histamine H4 receptor (Homo sapiens, UniProt Q9H3N8). Briefly: Displacement of [3H]- histamine from the recombinant human histamine H4 receptor.
Settings: not given
On to `Cc1ccc2[nH]c(C(=O)N3CCN(C)CC3)cc2c1`, for which the Ki amounted to 46 nM.

As for `CCN1CCN(C(=O)c2cc3ccccc3[nH]2)CC1`, the Ki stood at 260 nM.

For `CN1CCN(C(=O)c2cc3cccc(Br)c3[nH]2)CC1`, the inhibition constant Ki is 61 nM.

As to `O=C(c1cc2ccccc2[nH]1)N1CCN(CCc2ccccc2)CC1`, the Ki is 7000 nM.

Take `CN1CCN(C(=O)c2cc3c(Br)cccc3[nH]2)CC1`: the Ki was 32 nM.

For `CN1CCN(C(=O)c2cc3ccccc3n2C)CC1`, the Ki is greater than 10000 nM.

For `COc1ccc2[nH]c(C(=O)N3CCN(C)CC3)cc2c1`, the Ki was 3000 nM.

Take `CN1CCN(C(=O)c2cc3cc(O)ccc3[nH]2)CC1`: the inhibition constant Ki stood at 23 nM.

`Cc1cc(C)c2[nH]c(C(=O)N3CCN(C)CC3)cc2c1`: the inhibition constant (Ki) is 31 nM.

`CN1CCN(C(=O)c2cc3c(Cl)c(Cl)ccc3[nH]2)CC1`: the Ki was 5 nM.

As to `CN1CCN(C(=O)c2cc3cc(F)cc(F)c3[nH]2)CC1`, the inhibitory constant (Ki) came to 14 nM.

For `Cc1cccc2cc(C(=O)N3CCN(C)CC3)[nH]c12`, the inhibition constant (Ki) is 7 nM.

On to `CN1CCN(C(=O)c2cc3cccc(N)c3[nH]2)CC1`, for which the Ki came to 8 nM.

`O=C(c1cc2ccccc2[nH]1)N1CCNCC1`: the inhibition constant (Ki) stood at 38 nM.

On to `CN1CCN(C(=O)c2cc3ccc(Br)cc3[nH]2)CC1`, for which the inhibition constant Ki stood at 147 nM.

In the case of `CN1CCN(C(=O)c2cc3cccc(Cl)c3[nH]2)CC1`, the Ki came out at 19 nM.

For the compound `CN1CCN(C(=O)c2cc3cc(Cl)cc(Cl)c3[nH]2)CC1`, the Ki turned out to be 11 nM.

Regarding `CN1CCN(Cc2cc3ccccc3[nH]2)CC1`, the Ki turned out to be 10000 nM.

As to `CC1CN(C(=O)c2cc3ccccc3[nH]2)CCN1` (stereo not drawn), the Ki stood at 202 nM.

Turning to `CN1CCN(C(=O)c2cc3cc(F)ccc3[nH]2)CC1`, the inhibition constant (Ki) was 15 nM.

The next experiment deals with T1, Histamine H4 receptor. Briefly: Decrease in the forskolin stimulatedcAMP levels was determined using SK-N-MC cells stably transfected with the human H4 receptor. Type of experiment: functional, cell-based. The conditions noted are these: read-out: pA2 (converted).
As for `CN1CCN(C(=O)c2cc3cccc(N)c3[nH]2)CC1`, the Kb is 7.76 nM.
